According to patent US9546129B2, “DTPA prodrugs, compositions thereof, and methods of using the same” (priority 2012, dated 2017):
Marks after values point to notes of the source that are not given here.

System: ^241Am contaminated beagle dogs (inhalation)
Test: Decorporation efficacy in beagle dogs after ^241Am nitrate inhalation (Example 2)
Assay type: in vivo, beagle dog
Details: for Average percent recovered activity, Feces / Average percent recovered activity, Urine: cumulative, Mean (SEM); for Average percent recovered activity, GIT / Average percent recovered activity, Kidney / Average percent recovered activity, Liver / Average percent recovered activity, Lung / Average percent recovered activity, Ovaries / Average percent recovered activity, Soft Tissue / Average percent recovered activity, Spleen / Average percent recovered activity, TBLN / Average percent recovered activity, Testes / Average percent recovered activity, Total Bone: day 14, Mean (SEM)
Protocol: The efficacy of C2E2 of Lot 050 obtained using Method 2 was evaluated in male and female beagle dogs administered a nitrate complex of americium-241 (^241Am) via inhalation (INH). C2E2 was administered 24 hours post ^241Am inhalation exposure. Animals were monitored and urine and feces were collected daily. Cages were rinsed daily. Animals were euthanized 14 days later and tissues collected. Tissues were processed and analyzed for ^241Am content. The in-life measurements and biokinetics of ^241Am with and without chelation treatment are described.
Sixteen (16) male and female beagle dogs underwent a 14-day quarantine period for acclimation. Once released from quarantine, animals were weighed and that weight was used to randomize the animals into the study. Dogs were 13.3±2.2 months of age at study initiation and weighed 8.9±1.2 kg. After randomization, the animals were acclimated to metabolism cages for approximately 24 hours prior to radionuclide inhalation administration of ^241Am(III)-nitrate at time 0 followed by oral gavage administration of vehicle (water) or 100, 300, or 500 mg/kg C2E2 at 24 hours post inhalation exposure. Animals were placed in metabolism cages for the duration of the in-life phase.
Animals were euthanized 14 days after administration of ^241Am. A full necropsy was conducted and liver, spleen, kidneys, lungs and trachea, muscle samples (right and left quadriceps), GI tract (stomach and esophagus, upper and lower intestine), gonads, two femurs, lumbar vertebrae (L1-L4), paws and tail, TBLN, and all soft tissue remains were collected. The brain and eyes were removed from the skull and combined with the soft tissue remains. The skeleton was defleshed and all bone samples collected for analysis. Pelt was not analyzed for ^241Am content.
Urine, feces, cage rinse, and all tissue samples were processed by heat and chemical treatments. The samples were analyzed by gamma pulse height analysis.
For the study, stock C2E2 (L/N: 020WJL050) was obtained as a white powder and stored at 2-8° C. The C2E2 was weighed out and dissolved in vehicle, DI water. Solutions were prepared at 20 mg/mL, 60 mg/mL, and 100 mg/mL on each day of dosing. The formulation was protected from light by wrapping the container in aluminum foil. Metal-free spatulas, glassware, and stir bars were used when weighing and preparing the formulation.
On the morning of exposure, animals were fasted and sedated with acepromazine (0.05 mg/kg) by intramuscular administration. Dogs were anesthetized with isoflurane (5%). A latex mask was placed over the muzzle to minimize external contamination of the dog. The latex-covered muzzle was placed into the exposure plenum where a mixture of oxygen and isoflurane were continuously flowing and being monitored. Oxygen in the box was maintained at 45-55% and isoflurane was delivered as needed (2-3% in oxygen) to ensure the dog remained anesthetized. Aerosols were generated from the ^241Am nitrate solution using a Hospitec nebulizer operated at 10 psi. The aerosol was transited through a tube furnace operating at 70-80° C. to dry the aerosol and minimize the amount of acid present.
The exhaust flow was 12.2 L/min. Aerosols were collected on Pallflex® FiberFilm™ filters at a flow rate of 0.49 L/min for filter samples and 1.95 L/min for cascade impactor samples. Filters were placed in 20-mL vials with 5 mL of 7N HNO3 and vortexed for 30 seconds. The filters were removed and placed singly into another 20-mL vial. A […] aliquot was removed from the original vial. The filter and the aliquot were individually analyzed for ^241Am and the amount collected on the filter was determined. The aerosol concentration was determined to be 1155±223 nCi/L. The particle size was determined to be 0.63 μm AMAD (activity median aerodynamic diameter) with a 1.72 geometric standard deviation (GSD). Animals were exposed for 8 minutes. […]

[1] = C2E2 100 mg/kg (low dose) vs untreated control, dogs, 100 mg/kg
[2] = C2E2 100 mg/kg oral 24 h after ^241Am inhalation, dogs
[3] = C2E2 300 mg/kg (mid dose) vs untreated control, dogs, 300 mg/kg
[4] = C2E2 300 mg/kg oral 24 h after ^241Am inhalation, dogs
[5] = C2E2 500 mg/kg (high dose) vs untreated control, dogs, 500 mg/kg
[6] = C2E2 500 mg/kg oral 24 h after ^241Am inhalation, dogs
[7] = treated groups vs controls, dose not specified

## CCOC(=O)CN(CCN(CCN(CC(=O)O)CC(=O)OCC)CC(=O)O)CC(=O)O [C2E2, 6,9-bis(carboxymethyl)-3-(2-ethoxy-2-oxoethyl)-11-oxo-12-oxa-3,6,9-triazatetradecan-1-oic acid]
[1]
  Percent ^241Am content reduction in tissue, GIT: 43.9%
  Percent ^241Am content reduction in tissue, Gonads: 51.1%
  Percent ^241Am content reduction in tissue, Kidneys: 52.4%
  Percent ^241Am content reduction in tissue, Liver: 29.7%
  Percent ^241Am content reduction in tissue, Lungs: 30.6%
  Percent ^241Am content reduction in tissue, Soft Tissue: 47.1%
  Percent ^241Am content reduction in tissue, Spleen: 47.7%
  Percent ^241Am content reduction in tissue, TBLN: 22.9%
  Percent ^241Am content reduction in tissue, Total Bone: 41.6%
[2]
  Average percent recovered activity, Feces: 31.78 (3.21) %
  Average percent recovered activity, Urine: 22.35 (0.56)** %
C2E2 100 mg/kg, dogs
  Average percent recovered activity, GIT: 0.53 (0.05)** %
  Average percent recovered activity, Kidney: 0.37 (0.03)** %
  Average percent recovered activity, Liver: 19.13 (1.34)** %
  Average percent recovered activity, Lung: 9.69 (1.77)* %
  Average percent recovered activity, Ovaries: 0.001 (0.000) %
  Average percent recovered activity, Soft Tissue: 1.08 (0.07)** %
  Average percent recovered activity, Spleen: 0.16 (0.03) %
  Average percent recovered activity, TBLN: 0.028 (0.002) %
  Average percent recovered activity, Testes: 0.003 (0.001)* %
  Average percent recovered activity, Total Bone: 14.90 (1.97)** %
[3]
  Percent ^241Am content reduction in tissue, GIT: 58.2%
  Percent ^241Am content reduction in tissue, Gonads: 66.3%
  Percent ^241Am content reduction in tissue, Kidneys: 63.0%
  Percent ^241Am content reduction in tissue, Liver: 51.0%
  Percent ^241Am content reduction in tissue, Lungs: 48.2%
  Percent ^241Am content reduction in tissue, Soft Tissue: 51.8%
  Percent ^241Am content reduction in tissue, Spleen: 74.8%
  Percent ^241Am content reduction in tissue, TBLN: 31.7%
  Percent ^241Am content reduction in tissue, Total Bone: 45.5%
  Percent change in excretion, Feces: 155%
[4]
  Average percent recovered activity, Feces: 41.85 (4.43)** %
  Average percent recovered activity, Urine: 21.93 (2.26)** %
C2E2 300 mg/kg, dogs
  Average percent recovered activity, GIT: 0.39 (0.06)** %
  Average percent recovered activity, Kidney: 0.28 (0.04)** %
  Average percent recovered activity, Liver: 13.35 (1.51)** %
  Average percent recovered activity, Lung: 7.23 (0.89)** %
  Average percent recovered activity, Ovaries: 0.001 (0.001)* %
  Average percent recovered activity, Soft Tissue: 0.99 (0.12)** %
  Average percent recovered activity, Spleen: 0.07 (0.02)** %
  Average percent recovered activity, TBLN: 0.024 (0.004) %
  Average percent recovered activity, Testes: 0.003 (0.001)* %
  Average percent recovered activity, Total Bone: 13.93 (1.30)** %
[5]
  Percent ^241Am content reduction in tissue, GIT: 54.1%
  Percent ^241Am content reduction in tissue, Gonads: 55.3%
  Percent ^241Am content reduction in tissue, Kidneys: 61.8%
  Percent ^241Am content reduction in tissue, Liver: 71.7%
  Percent ^241Am content reduction in tissue, Lungs: 63.5%
  Percent ^241Am content reduction in tissue, Soft Tissue: 50.7%
  Percent ^241Am content reduction in tissue, Spleen: 69.0%
  Percent ^241Am content reduction in tissue, TBLN: 35.0%
  Percent ^241Am content reduction in tissue, Total Bone: 48.3%
  Percent change in excretion, Urine: 1310%
[6]
  Average percent recovered activity, Feces: 36.53 (1.18)* %
  Average percent recovered activity, Urine: 35.63 (0.70)** %
C2E2 500 mg/kg, dogs
  Average percent recovered activity, GIT: 0.44 (0.05)** %
  Average percent recovered activity, Kidney: 0.29 (0.01)** %
  Average percent recovered activity, Liver: 7.71 (0.35)** %
  Average percent recovered activity, Lung: 5.10 (0.31)** %
  Average percent recovered activity, Ovaries: 0.001 (0.000) %
  Average percent recovered activity, Soft Tissue: 1.01 (0.02)** %
  Average percent recovered activity, Spleen: 0.09 (0.02)* %
  Average percent recovered activity, TBLN: 0.023 (0.003) %
  Average percent recovered activity, Testes: 0.003 (0.001)* %
  Average percent recovered activity, Total Bone: 13.20 (0.86)** %
dogs, single oral 100, 300, 500 mg/kg, one 500 mg/kg animal (4004) had foamy emesis
  In-life observations: no unusual or adverse effects
[7]
  Reduction of ^241Am content, TBLN: About 50%
  Reduction of ^241Am content, total bone content: ~40%
